Values after ≈ are worked out from the molar mass of the structure shown. “Also recorded” adds a separate entry of the source. Like-named read-outs stand apart in the source and are kept apart here. Marks after values point to notes of the source that are not given here.
Tests used:
‘Ca. N. franklandus’ C13 [1] = test: Whole-cell activity assay, inhibition of ammonia oxidation (nitrite accumulation from 500 µM NH4Cl); type: cell-based, ‘Candidatus Nitrosocosmicus franklandus’ C13; conditions: for Lowest fully inhibitory concentration (I) for ammonia oxidation / IC50: 37°C; for Lowest fully inhibitory concentration (I) for ammonia oxidation: full inhibition = lack of sustained nitrite accumulation; for IC50: nitrite accumulation over 1 h, read-out: Half-maximal inhibitory concentration (IC50) of ammonia oxidation
Protocol: (§1) Nitrosomonas europaea and ‘Ca. N. franklandus’ C13 cells were harvested at mid-exponential phase (∼800 µM NO2^− accumulated) by filtration onto 0.22 µm pore-size membrane filter (PES, Merck Millipore). Cells were then washed and resuspended in FWM salts (i.e. FWM without added NH4Cl and other medium components as described above) buffered with 10 mM HEPES buffer (pH 7). Cells were incubated at 28°C for N. europaea and 37°C for ‘Ca. N. franklandus’ C13 for ∼1 h until endogenous respiration ceased.
(§2) Although these alcohols were added at concentrations above their solubility for the consistency of the experimental design, the limit of solubility was considered when evaluating the results. Reactions were initiated by addition of 500 µM NH4Cl or 200 µM NH2OH. Vials containing N. europaea and ‘Ca. Nitrosocosmicus franklandus’ C13 cells were incubated at 28°C and 37°C, respectively. The activity of cultures was followed by monitoring nitrite accumulation over 1 h, measured in 15 min intervals using Griess reagent in a 96-well plate format as previously described (Lehtovirta-Morley et al. [2014]). The final cell concentration in the activity assays was ∼10^7 cells ml^−1 for both N. europaea and ‘Ca. N. franklandus’ C13, which equate to ∼1.2 and 5.55 µg protein ml^−1, respectively. Cell counts were performed as previously described (Oudova-Rivera et al. [2023]). Protein concentrations were determined using a Pierce bicinchoninic acid (BCA) protein assay kit (Thermo Scientific) according to the manufacturer instructions. One-way ANOVA with LSD post-hoc tests were performed using SPSS statistics software version 27 (IBM).
The reaction velocity of ammonia and hydroxylamine oxidation was determined by measuring the rate of nitrite accumulation over time (µM min^−1). […] The half-maximal inhibitory concentration (IC50) was calculated from the slope and y-axis intercept over the linear part of the curve following the formula: […]
(§3) Inhibition by alcohols was tested at a fixed substrate concentration of 500 µM NH4Cl or 200 µM hydroxylamine for both N. europaea and ‘Ca. N. franklandus’ C13. Ammonia and hydroxylamine concentrations were selected based on previously published Km values and activity assays (Suzuki et al. [1974], Martens-Habbena et al. [2009], Oudova-Rivera et al. [2023]). Fully inhibitory concentrations of alcohols were determined experimentally with a series of activity assays, gradually narrowing down the range of alcohol concentrations applied. Full inhibition was defined as a lack of sustained nitrite accumulation, where there was either no nitrite accumulation at all, or where a minor accumulation of nitrite was initially detected but ceased (potentially due to a delayed effect of the inhibitor).
(§4) Inhibition of ammonia oxidation was tested using whole-cell activity assays with the concentration of alcohols ranging from 2 to 100 mM and fixed substrate ammonia concentration of 500 µM NH4Cl. […] Because hydroxylamine, the product of ammonia oxidation, is a pathway intermediate downstream of AMO, any inhibitors specific to AMO should not interfere with hydroxylamine oxidation.

N. europaea [2] = test: as above; type: cell-based, Nitrosomonas europaea; conditions: 28°C; for Lowest fully inhibitory concentration (I) for ammonia oxidation: full inhibition = lack of sustained nitrite accumulation; for IC50: nitrite accumulation over 1 h, read-out: Half-maximal inhibitory concentration (IC50) of ammonia oxidation
Protocol: as §1
as §2, with “. Although” for “Although”
The reaction velocity of ammonia and hydroxylamine oxidation was determined by measuring the rate of nitrite accumulation over time (µM min^−1). The logarithm of the reaction velocity, calculated as a percentage of the non-inhibited control, was plotted against the inhibitor concentration resulting in a linear relationship (Figs. S1 and S2). The half-maximal inhibitory concentration (IC50) was calculated from the slope and y-axis intercept over the linear part of the curve following the formula: […]
as §3

N. europaea [3] = tested on: N. europaea; parameters: method as in Hooper and Terry [1973]; conditions: ref Hooper and Terry [1973]; cited from earlier work
N. europaea [4] = test: Whole-cell activity assay with hydroxylamine as substrate (specificity of AMO inhibition); type: cell-based, Nitrosomonas europaea; conditions: 200 µM hydroxylamine; for Rate of nitrite accumulation from hydroxylamine oxidation compared to the control: alcohol at its lowest concentration fully inhibitory to ammonia oxidation; for Specificity of inhibition to AMO (effect on hydroxylamine oxidation): fully inhibitory alcohol concentration
Protocol: as §1, §2, §3, §4

‘Ca. N. franklandus’ C13 [5] = test: as above; type: cell-based, ‘Candidatus Nitrosocosmicus franklandus’ C13; conditions: 200 µM hydroxylamine; for Rate of nitrite accumulation from hydroxylamine oxidation compared to the non-inhibited control: alcohol at its lowest concentration fully inhibitory to ammonia oxidation; for Specificity of inhibition to AMO (effect on hydroxylamine oxidation): fully inhibitory alcohol concentration
Protocol: as §1, §2, §3, §4

physchem = conditions: water

Row | Compound | IC50 (‘Ca. N. franklandus’ C13 [1]) [mM] | IC50 (N. europaea [2]) [mM] | solubility (physchem) [mM] | IC50 (N. europaea [2]; Nitrosomonas europaea) [mM] | Lowest fully inhibitory concentration (I) for ammonia oxidation (‘Ca. N. franklandus’ C13 [1]) | Lowest fully inhibitory concentration (I) for ammonia oxidation (N. europaea [2]) | Concentration giving maximal inhibition (N. europaea [3]) [M] | Rate of nitrite accumulation from hydroxylamine oxidation compared to the control (N. europaea [4]) | Rate of nitrite accumulation from hydroxylamine oxidation compared to the non-inhibited control (‘Ca. N. franklandus’ C13 [5]) | Specificity of inhibition to AMO (effect on hydroxylamine oxidation) (N. europaea [4]) | Specificity of inhibition to AMO (effect on hydroxylamine oxidation) (‘Ca. N. franklandus’ C13 [5]) | Specificity of inhibition to AMO (effect on hydroxylamine oxidation) (‘Ca. N. franklandus’ C13 [5]; listed as methanol) | inhibition at 2000 µM (‘Ca. N. franklandus’ C13 [1]; 2 mM octanol (limit of solubility)) [%] | Lowest fully inhibitory concentration (I) for ammonia oxidation (‘Ca. N. franklandus’ C13 [1]; listed as octanol) [mM]
1 | CCCO [1-Propanol, 1-propanol] | 6.2 | 13.6 |  |  | 20 mM | 100 mM | 0.33 |  |  |  |  |  |  | 
2 | CC(C)O [2-Propanol, 2-propanol] | 26.8 | 32.6 |  |  | 40 mM | 100 mM | 0.13 |  |  |  |  |  |  | 
3 | CCO [Ethanol, ethanol] | 7.2 | 20.9 |  |  | 80 mM | 90 mM |  |  |  | specific inhibitor; also recorded: specific inhibitors of the AMO | did not interfere with hydroxylamine oxidation; also recorded: specific inhibitor; also recorded: specific inhibitors of the AMO |  |  | 
4 | CO [Methanol] | 0.19 | 0.31 |  |  | 8 mM | 10 mM |  |  | not affected | specific inhibitors of the AMO | specific inhibitors of the AMO | did not interfere with hydroxylamine oxidation |  | 
5 | CCCCCCCCO [Octanol, 1-octanol] |  |  | 2 (≈ 260 µg/mL) |  | 10** mM | 20** mM |  | no activity detected | 33% ± 1.4% |  |  |  | 39 | 10

Second part, led by results:

Row | IC50 (‘Ca. N. franklandus’ C13 [1]) [mM] | IC50 (N. europaea [2]) [mM] | solubility (physchem) [mM] | IC50 (N. europaea [2]; Nitrosomonas europaea) [mM] | Compound | Lowest fully inhibitory concentration (I) for ammonia oxidation (‘Ca. N. franklandus’ C13 [1]) | Lowest fully inhibitory concentration (I) for ammonia oxidation (N. europaea [2]) | Concentration giving maximal inhibition (N. europaea [3]) [M] | Rate of nitrite accumulation from hydroxylamine oxidation compared to the control (N. europaea [4]) | Rate of nitrite accumulation from hydroxylamine oxidation compared to the non-inhibited control (‘Ca. N. franklandus’ C13 [5]) | Specificity of inhibition to AMO (effect on hydroxylamine oxidation) (N. europaea [4]) | Specificity of inhibition to AMO (effect on hydroxylamine oxidation) (‘Ca. N. franklandus’ C13 [5]) | Specificity of inhibition to AMO (effect on hydroxylamine oxidation) (‘Ca. N. franklandus’ C13 [5]; listed as methanol) | inhibition at 2000 µM (‘Ca. N. franklandus’ C13 [1]; 2 mM octanol (limit of solubility)) [%] | Lowest fully inhibitory concentration (I) for ammonia oxidation (‘Ca. N. franklandus’ C13 [1]; listed as octanol) [mM]
6 | 4 | 7.6 |  |  | CCCCO [Butanol, 1-butanol] | 40 mM | 100 mM |  | 83% ± 1.8% | 55% ±2.3% |  |  |  |  | 
7 | 3.6 |  | 17 (≈ 1980 µg/mL) | 4.5 | CCCCCCCO [Heptanol, 1-heptanol] | 17 mM | 17 mM |  | no activity detected | 10% ± 0.5% |  |  |  |  | 
8 | 2.4 |  |  | 2.2 | CCCCCCO [Hexanol, 1-hexanol] | 15 mM | 20 mM |  | 18% ± 5.6% | 13% ± 0.9% |  |  |  |  | 
9 | 3.6 |  |  | 5.3 | CCCCCO [Pentanol, 1-pentanol] | 20 mM | 100 mM |  | 27% ± 2.6% | 53% ± 2.8% |  |  |  |  | 

Source: paper PMC11025371, “Alcohols as inhibitors of ammonia oxidizing archaea and bacteria” (FEMS Microbiology Letters, 2023)
